PubChem BioAssay (NCI)
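48-hour exposure; five concentrations; linearly interpolated endpoints. GI50: concentration for 50% inhibition of growth. Definition used: TGI = concentration required for complete inhibition of growth.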

Tests used:
Test in all cases: NCI-60 cell line screen, 48 h
RXF 393 renal = tested on: RXF 393 renal
UO-31 renal = tested on: UO-31 renal
NCI/ADR-RES ovarian = tested on: NCI/ADR-RES ovarian
PC-3 prostate = tested on: PC-3 prostate
HOP-92 NSCLC = tested on: HOP-92 NSCLC
A498 renal = tested on: A498 renal
OVCAR-3 ovarian = tested on: OVCAR-3 ovarian
HS 578T breast = tested on: HS 578T breast
MDA-MB-435 = tested on: MDA-MB-435
OVCAR-8 ovarian = tested on: OVCAR-8 ovarian
TK-10 renal = tested on: TK-10 renal
SK-MEL-2 melanoma = tested on: SK-MEL-2 melanoma
MDA-MB-231 breast = tested on: MDA-MB-231 breast
SN12C renal = tested on: SN12C renal
SK-MEL-28 melanoma = tested on: SK-MEL-28 melanoma
SF-539 CNS = tested on: SF-539 CNS
HOP-62 NSCLC = tested on: HOP-62 NSCLC
HCC-2998 colon = tested on: HCC-2998 colon
ACHN renal = tested on: ACHN renal
OVCAR-5 ovarian = tested on: OVCAR-5 ovarian
SNB-75 CNS = tested on: SNB-75 CNS
DU-145 prostate = tested on: DU-145 prostate
COLO 205 colon = tested on: COLO 205 colon
SK-OV-3 ovarian = tested on: SK-OV-3 ovarian
MALME-3M melanoma = tested on: MALME-3M melanoma
SK-MEL-5 melanoma = tested on: SK-MEL-5 melanoma
SF-295 CNS = tested on: SF-295 CNS
A549 NSCLC = tested on: A549 NSCLC
UACC-257 melanoma = tested on: UACC-257 melanoma
UACC-62 melanoma = tested on: UACC-62 melanoma
OVCAR-4 ovarian = tested on: OVCAR-4 ovarian
K-562 leukemia = tested on: K-562 leukemia
NCI-H460 lung = tested on: NCI-H460 lung
IGROV1 ovarian = tested on: IGROV1 ovarian
LOX IMVI melanoma = tested on: LOX IMVI melanoma
786-0 renal = tested on: 786-0 renal
SNB-19 CNS = tested on: SNB-19 CNS
CCRF-CEM leukemia = tested on: CCRF-CEM leukemia
KM12 colon = tested on: KM12 colon
M14 melanoma = tested on: M14 melanoma
RPMI-8226 leukemia = tested on: RPMI-8226 leukemia
SR leukemia = tested on: SR leukemia
NCI-H226 lung = tested on: NCI-H226 lung
CAKI-1 renal = tested on: CAKI-1 renal
SF-268 CNS = tested on: SF-268 CNS
MOLT-4 leukemia = tested on: MOLT-4 leukemia
EKVX NSCLC = tested on: EKVX NSCLC
HCT-15 colon = tested on: HCT-15 colon
NCI-H522 lung = tested on: NCI-H522 lung
NCI-H23 lung = tested on: NCI-H23 lung
BT-549 breast = tested on: BT-549 breast
MCF7 breast = tested on: MCF7 breast
HL-60(TB) leukemia = tested on: HL-60(TB) leukemia
SW-620 colon = tested on: SW-620 colon
HCT-116 colon = tested on: HCT-116 colon
U251 CNS = tested on: U251 CNS

`CCc1ccc(OCc2ccccc2C(=O)Nc2ccc3nc(C)cc(N)c3c2)cc1` showed a GI50 (RXF 393 renal) of 1.32 µM, a TGI (RXF 393 renal) of 2.75 µM and a GI50 (UO-31 renal) of 1.44 µM. For the same molecule, the TGI (UO-31 renal) was 2.84 µM, the GI50 (NCI/ADR-RES ovarian) was 1.75 µM and the TGI (NCI/ADR-RES ovarian) was 4.2 µM. For the same molecule, the GI50 (PC-3 prostate) was 1.52 µM, the TGI (PC-3 prostate) was 2.93 µM and the GI50 (HOP-92 NSCLC) was 1.16 µM. It also gave a TGI (HOP-92 NSCLC) of 2.55 µM, a GI50 (A498 renal) of 1.5 µM and a TGI (A498 renal) of 3 µM. It also gave a GI50 (OVCAR-3 ovarian) of 1.62 µM, a TGI (OVCAR-3 ovarian) of 3.04 µM and a GI50 (HS 578T breast) of 1.79 µM. It also gave a TGI (HS 578T breast) of 4.38 µM, a GI50 (MDA-MB-435) of 1.43 µM and a TGI (MDA-MB-435) of 2.77 µM. The GI50 (OVCAR-8 ovarian) was 1.68 µM, the TGI (OVCAR-8 ovarian) was 4.61 µM and the GI50 (TK-10 renal) was 1.68 µM. The TGI (TK-10 renal) was 3.17 µM, the GI50 (SK-MEL-2 melanoma) was 1.79 µM and the TGI (SK-MEL-2 melanoma) was 3.39 µM. It also gave a GI50 (MDA-MB-231 breast) of 0.846 µM, a TGI (MDA-MB-231 breast) of 2.25 µM and a GI50 (SN12C renal) of 1.51 µM. The TGI (SN12C renal) was 3.02 µM, the GI50 (SK-MEL-28 melanoma) was 1.75 µM and the TGI (SK-MEL-28 melanoma) was 3.29 µM. For the same molecule, the GI50 (SF-539 CNS) was 1.59 µM, the TGI (SF-539 CNS) was 3.04 µM and the GI50 (HOP-62 NSCLC) was 1.77 µM. The TGI (HOP-62 NSCLC) was 3.31 µM, the GI50 (HCC-2998 colon) was 1.64 µM and the TGI (HCC-2998 colon) was 3.24 µM. The GI50 (ACHN renal) was 1.73 µM, the TGI (ACHN renal) was 3.13 µM and the GI50 (OVCAR-5 ovarian) was 1.62 µM. For the same molecule, the TGI (OVCAR-5 ovarian) was 3.14 µM, the GI50 (SNB-75 CNS) was 1.28 µM and the TGI (SNB-75 CNS) was 2.59 µM. It also gave a GI50 (DU-145 prostate) of 1.68 µM, a TGI (DU-145 prostate) of 3.17 µM and a GI50 (COLO 205 colon) of 0.24 µM. It also gave a TGI (COLO 205 colon) of 0.692 µM, a GI50 (SK-OV-3 ovarian) of 1.64 µM and a TGI (SK-OV-3 ovarian) of 3 µM. For the same molecule, the GI50 (MALME-3M melanoma) was 1.74 µM, the TGI (MALME-3M melanoma) was 3.35 µM and the GI50 (SK-MEL-5 melanoma) was 1.54 µM. It also gave a TGI (SK-MEL-5 melanoma) of 2.91 µM, a GI50 (SF-295 CNS) of 1.65 µM and a TGI (SF-295 CNS) of 3.13 µM. For the same molecule, the GI50 (A549 NSCLC) was 1.56 µM, the TGI (A549 NSCLC) was 3.27 µM and the GI50 (UACC-257 melanoma) was 1.83 µM. For the same molecule, the TGI (UACC-257 melanoma) was 3.37 µM, the GI50 (UACC-62 melanoma) was 1.6 µM and the TGI (UACC-62 melanoma) was 3.02 µM.

In the case of `COc1ccc(C2NC(=S)NC3=C2COc2ccc(F)cc23)cc1OC` (stereo unspecified), the GI50 (OVCAR-4 ovarian) is reported as 23 µM, the TGI (OVCAR-4 ovarian) is reported as over 100 µM and the GI50 (RXF 393 renal) is reported as 18.9 µM. The TGI (RXF 393 renal) was 60.8 µM, the GI50 (K-562 leukemia) was 15.9 µM and the TGI (K-562 leukemia) was over 100 µM. It also gave a GI50 (UO-31 renal) of 39.2 µM, a TGI (UO-31 renal) of over 100 µM and a GI50 (NCI/ADR-RES ovarian) of 18.9 µM. For the same molecule, the TGI (NCI/ADR-RES ovarian) was 44.4 µM, the GI50 (NCI-H460 lung) was 24.1 µM and the TGI (NCI-H460 lung) was over 100 µM. For the same molecule, the GI50 (IGROV1 ovarian) was 29.8 µM, the TGI (IGROV1 ovarian) was over 100 µM and the GI50 (LOX IMVI melanoma) was 13.5 µM. For the same molecule, the TGI (LOX IMVI melanoma) was 27.6 µM, the GI50 (786-0 renal) was 28.6 µM and the TGI (786-0 renal) was over 100 µM. The GI50 (SNB-19 CNS) was 46.7 µM, the TGI (SNB-19 CNS) was over 100 µM and the GI50 (CCRF-CEM leukemia) was 93.5 µM. It also gave a TGI (CCRF-CEM leukemia) of over 100 µM, a GI50 (PC-3 prostate) of 14.2 µM and a TGI (PC-3 prostate) of 87.9 µM. It also gave a GI50 (KM12 colon) of 25.9 µM, a TGI (KM12 colon) of over 100 µM and a GI50 (M14 melanoma) of 33.9 µM. For the same molecule, the TGI (M14 melanoma) was over 100 µM, the GI50 (HOP-92 NSCLC) was 41.7 µM and the TGI (HOP-92 NSCLC) was over 100 µM. The GI50 (A498 renal) was 13.4 µM, the TGI (A498 renal) was 36.1 µM and the GI50 (RPMI-8226 leukemia) was 13.5 µM. The TGI (RPMI-8226 leukemia) was over 100 µM, the GI50 (OVCAR-3 ovarian) was 11 µM and the TGI (OVCAR-3 ovarian) was 49.9 µM. For the same molecule, the GI50 (HS 578T breast) was 7.75 µM, the TGI (HS 578T breast) was 38.1 µM and the GI50 (MDA-MB-435) was 12.3 µM. For the same molecule, the TGI (MDA-MB-435) was 38.5 µM, the GI50 (OVCAR-8 ovarian) was 19.4 µM and the TGI (OVCAR-8 ovarian) was 60.9 µM. For the same molecule, the GI50 (TK-10 renal) was 31.2 µM, the TGI (TK-10 renal) was over 100 µM and the GI50 (SK-MEL-2 melanoma) was 55.4 µM. It also gave a TGI (SK-MEL-2 melanoma) of over 100 µM, a GI50 (MDA-MB-231 breast) of 8.37 µM and a TGI (MDA-MB-231 breast) of 53.5 µM. It also gave a GI50 (SR leukemia) of 50.8 µM, a TGI (SR leukemia) of over 100 µM and a GI50 (NCI-H226 lung) of 16.3 µM. For the same molecule, the TGI (NCI-H226 lung) was 70.4 µM, the GI50 (CAKI-1 renal) was 15.8 µM and the TGI (CAKI-1 renal) was 65 µM. It also gave a GI50 (SF-268 CNS) of 19 µM, a TGI (SF-268 CNS) of over 100 µM and a GI50 (SN12C renal) of 15.1 µM. It also gave a TGI (SN12C renal) of 50.1 µM, a GI50 (SK-MEL-28 melanoma) of 41.2 µM and a TGI (SK-MEL-28 melanoma) of over 100 µM. For the same molecule, the GI50 (MOLT-4 leukemia) was 54.6 µM, the TGI (MOLT-4 leukemia) was over 100 µM and the GI50 (EKVX NSCLC) was 29.8 µM. It also gave a TGI (EKVX NSCLC) of over 100 µM, a GI50 (HCT-15 colon) of 18.6 µM and a TGI (HCT-15 colon) of 87 µM. It also gave a GI50 (NCI-H522 lung) of 49.2 µM, a TGI (NCI-H522 lung) of over 100 µM and a GI50 (NCI-H23 lung) of 14.1 µM. For the same molecule, the TGI (NCI-H23 lung) was 34.2 µM, the GI50 (SF-539 CNS) was 28.3 µM and the TGI (SF-539 CNS) was 67.4 µM. For the same molecule, the GI50 (HOP-62 NSCLC) was 26.8 µM, the TGI (HOP-62 NSCLC) was over 100 µM and the GI50 (ACHN renal) was 13 µM. It also gave a TGI (ACHN renal) of 39.2 µM, a GI50 (BT-549 breast) of 27.9 µM and a TGI (BT-549 breast) of 83.3 µM. The GI50 (OVCAR-5 ovarian) was 18.6 µM, the TGI (OVCAR-5 ovarian) was 48.1 µM and the GI50 (MCF7 breast) was 31.2 µM. The TGI (MCF7 breast) was over 100 µM, the GI50 (HL-60(TB) leukemia) was 18.5 µM and the TGI (HL-60(TB) leukemia) was 50.7 µM. It also gave a GI50 (SW-620 colon) of 24.5 µM, a TGI (SW-620 colon) of over 100 µM and a GI50 (DU-145 prostate) of 33.2 µM. For the same molecule, the TGI (DU-145 prostate) was over 100 µM, the GI50 (HCT-116 colon) was 16.6 µM and the TGI (HCT-116 colon) was 57.1 µM. For the same molecule, the GI50 (COLO 205 colon) was 36.2 µM, the TGI (COLO 205 colon) was over 100 µM and the GI50 (U251 CNS) was 12.7 µM. The TGI (U251 CNS) was 29.5 µM, the GI50 (SK-OV-3 ovarian) was 71.2 µM and the TGI (SK-OV-3 ovarian) was over 100 µM. It also gave a GI50 (SK-MEL-5 melanoma) of 13.5 µM, a TGI (SK-MEL-5 melanoma) of 30.7 µM and a GI50 (SF-295 CNS) of 20.1 µM. The TGI (SF-295 CNS) was 70.3 µM, the GI50 (A549 NSCLC) was 10.9 µM and the TGI (A549 NSCLC) was 36.7 µM. It also gave a GI50 (UACC-257 melanoma) of 14.2 µM, a TGI (UACC-257 melanoma) of 45.4 µM and a GI50 (UACC-62 melanoma) of 14.8 µM. The TGI (UACC-62 melanoma) was 41.8 µM.
